In patent US20240398737A1, “FUNCTIONALIZED LONG-CHAIN HYDROCARBON MONO- AND DI-CARBOXYLIC ACIDS AND DERIVATIVES THEREOF, AND THEIR USE FOR THE PREVENTION OR TREATMENT OF DISEASE” (Espervita Therapeutics, Inc., priority 2021, published 2024):
“And” between values parts separate entries of the source, which are not always exact repeats. Identical values can stand only once.

Legend:
Format in all cases: biochemical
[1] = molecular target: Aurora A (Homo sapiens (Human), UniProt O14965); test: Wild type kinase screen: Aurora A; settings: compound at 10 μM, 10 μM ATP, Data 1 and Data 2 duplicates
[2] = molecular target: Aurora B (Homo sapiens (Human), UniProt Q96GD4); test: Wild type kinase screen: Aurora B; settings: compound at 10 μM, 10 μM ATP, Data 1 and Data 2 duplicates
[3] = molecular target: AURORA C (Homo sapiens (Human), UniProt Q9UQB9); test: Wild type kinase screen: AURORA C; settings: compound at 10 μM, 10 μM ATP, Data 1 and Data 2 duplicates
[4] = molecular target: BMX/ETK (Homo sapiens (Human), UniProt P51813); test: Wild type kinase screen: BMX/ETK; settings: compound at 10 μM, 10 μM ATP, Data 1 and Data 2 duplicates
[5] = molecular target: c-Kit (Homo sapiens (Human), UniProt P10721); test: Wild type kinase screen: c-Kit; settings: compound at 10 μM, 10 μM ATP, Data 1 and Data 2 duplicates
[6] = molecular target: CAMK2g (Homo sapiens (Human), UniProt Q13555); test: Wild type kinase screen: CAMK2g; settings: compound at 10 μM, 10 μM ATP, Data 1 and Data 2 duplicates
[7] = molecular target: DDR2 (Homo sapiens (Human), UniProt Q16832); test: Wild type kinase screen: DDR2; settings: compound at 10 μM, 10 μM ATP, Data 1 and Data 2 duplicates
[8] = molecular target: ERK7/MAPK15 (Homo sapiens (Human), UniProt Q8TD08); test: Wild type kinase screen: ERK7/MAPK15; settings: compound at 10 μM, 10 μM ATP, Data 1 and Data 2 duplicates
[9] = molecular target: GSK3b (Homo sapiens (Human), UniProt P49841); test: Wild type kinase screen: GSK3b; settings: compound at 10 μM, 10 μM ATP, Data 1 and Data 2 duplicates
[10] = molecular target: LIMK1 (Homo sapiens (Human), UniProt P53667); test: Wild type kinase screen: LIMK1; settings: compound at 10 μM, 10 μM ATP, Data 1 and Data 2 duplicates
[11] = molecular target: MAPKAPK2 (Homo sapiens (Human), UniProt P49137); test: Wild type kinase screen: MAPKAPK2; settings: compound at 10 μM, 10 μM ATP, Data 1 and Data 2 duplicates
[12] = molecular target: MELK (Homo sapiens (Human), UniProt Q14680); test: Wild type kinase screen: MELK; settings: compound at 10 μM, 10 μM ATP, Data 1 and Data 2 duplicates
[13] = molecular target: MLCK/MYLK (Homo sapiens (Human), UniProt Q15746); test: Wild type kinase screen: MLCK/MYLK; settings: compound at 10 μM, 10 μM ATP, Data 1 and Data 2 duplicates
[14] = molecular target: NEK2 (Homo sapiens (Human), UniProt P51955); test: Wild type kinase screen: NEK2; settings: compound at 10 μM, 10 μM ATP, Data 1 and Data 2 duplicates
[15] = molecular target: PIM3 (Homo sapiens (Human), UniProt Q86V86); test: Wild type kinase screen: PIM3; settings: compound at 10 μM, 10 μM ATP, Data 1 and Data 2 duplicates
[16] = molecular target: RIPK4 (Homo sapiens (Human), UniProt P57078); test: Wild type kinase screen: RIPK4; settings: compound at 10 μM, 10 μM ATP, Data 1 and Data 2 duplicates
[17] = molecular target: TNIK (Homo sapiens (Human), UniProt Q9UKE5); test: Wild type kinase screen: TNIK; settings: compound at 10 μM, 10 μM ATP, Data 1 and Data 2 duplicates
[18] = molecular target: FLT1/VEGFR1 (Homo sapiens (Human), UniProt P17948); test: Wild type kinase screen: FLT1/VEGFR1; settings: compound at 10 μM, 10 μM ATP, Data 1 and Data 2 duplicates
[19] = molecular target: Human ACC1 (Homo sapiens (Human), UniProt Q13085); test: ACC1 enzymatic assay (ADP-Glo); settings: recombinant human ACC1 5 nM; 10 concentrations from 300 μM; Runs 1-3; read-out: Compound IC50 (M) ACC1
Description: (§1) Human ACC1 (Cat #50202 Lot #120830) and ACC2 (Cat #50201 Lot #160217) were obtained from BPS Biosciences, San Diego, CA 92121. Human ACC1 had C-terminal flag and His-tags with a MW of 270 KDa after purification from Baculovirus infected Sf9 cell expression system and came as a solution in 50 mM Tris-HCl, pH 8.0, 500 mM NaCl, 10% glycerol, 1 mM DTT, 100 μg/ml FLAG peptide with 70% purity. The stock concentration was 0.25 mg/ml corresponding to 0.926 μM. Human ACC2 was also purified from Baculovirus infected Sf9 expression system. […] The stock concentration was 0.1 mg/ml corresponding to 0.36 μM. The assay buffer for measuring the activity of ACC contained: 30 mM HEPES (pH 7.4), 2 mM MgCl2, 0.01% Brij35, 2 mM DTT, 1% DMSO (solvent for compound). For ACC1 and ACC2 assays, the following concentrations of substrate and cofactors were used: 12 mM NaHCO3, 10 μM acetyl CoA, 10 μM ATP, and 2 mM K-citrate. The recombinant human enzyme was used at 5 nM for ACC1 and 1 nM for ACC2. In brief, enzyme alone in the above buffer without substrate was used for background. All test materials were dissolved in 100% DMSO using acoustic technology (Echo550). The prepared solution was preincubated for 15 min followed by the addition of 5 μL/well of ADP standard. ATP was then added to start the reaction. The assay contents were spun and briefly shaken followed by incubation at room temperature for 1 h. At the end of completion of assay, 5 μL of ADP-Glo was added to each well to stop the reaction. The contents were mixed, spun and incubated at room temperature for 40 min followed by the addition of 10 μL/well of ADP detection reagent. The contents were spun, mixed and covered with plastic to measure luminescence. […] The light generated, measured in a luminometer, correlates to the amount of ADP generated in the ACC assay, which is indicative of ACC activity.
(§2) The enzyme concentrations for ACC1 and ACC2 were 5 nM and 1 nM, respectively.
Data represent nM or μM ADP produced, % Activity (relative to no inhibitor controls), and curve fits were performed by GraphPad Prism software. […]

[20] = molecular target: Human ACC2 (Homo sapiens (Human), UniProt O00763); test: ACC2 enzymatic assay (ADP-Glo); settings: recombinant human ACC2 1 nM; 10 concentrations from 300 μM; Runs 1-3; read-out: Compound IC50 (M) ACC2
Description: as §1, §2
Data represent nM or μM ADP produced, % Activity (relative to no inhibitor controls), and curve fits were performed by GraphPad Prism software. The IC50 concentration-response curves were generated for both the ACC1 and ACC2 assays using recombinant human ACC.

[21] = molecular target: human ACLY (Homo sapiens (Human), UniProt P53396); test: ATP-citrate lyase (ACLY) enzymatic assay (ADP-Glo); settings: recombinant human ACLY; 10 concentrations from 300 μM; Runs 1-3; read-out: Compound IC50 (M) ACLY
Description: ATP citrate lyase was obtained from Sino Biological Inc. Cat #11769-H07B, Lot #LC08DE1701. It was prepared from a DNA sequence encoding the human ACLY (P53396) (Met 1-Met 1101) expressed in Baculovirus-Insect Cells, with a polyhistidine tag at the N-terminus. The recombinant human ACLY consists of 1120 amino acids and has a calculated molecular mass of 123 kDa. It migrates as an approximately 110 kDa band in SDS-PAGE under reducing conditions. The enzyme came as a lyophilized powder in sterile 20 mM Tris, 500 mM NaCl, pH 8.0, 10% glycine. Normally 5%-8% trehalose and mannitol are added as protectants before lyophilization. The recombinant human ACLY from Sino Biological was formulated in 45 mM Tris-HCl, pH 8.0, 124 mM NaCl, 2.4 mM KCl, 18 mM glutathione, 10% glycerol, and 3 mM DTT.
To detect ADP produced from ACL assay, the ADP-Glo™ assay format from Promega, Madison, WI, was used, to detect the conversion of ATP to ADP. […] This assay is performed in two steps: i) after the ACL-mediated enzymatic reaction that utilizes ATP and produces ADP, ADP-Glo™ Reagent is added to terminate the kinase reaction and deplete the remaining ATP, and ii) the Kinase Detection Reagent is added to convert ADP to ATP and allow the newly synthesized ATP to be measured using a luciferase/luciferin reaction. The light generated, measured in a luminometer, correlates to the amount of ADP generated in the ACL assay, which is indicative of ACL activity.
Data represent nM or μM ADP produced, % Activity (relative to no inhibitor controls), and curve fits were performed by GraphPad Prism software. The IC50 concentration-response curves were generated for ADPGlo™ using recombinant human ACL from Sino Biologicals Inc.

MAPKAPK2, sequence (P49137 whole entry, species assumed): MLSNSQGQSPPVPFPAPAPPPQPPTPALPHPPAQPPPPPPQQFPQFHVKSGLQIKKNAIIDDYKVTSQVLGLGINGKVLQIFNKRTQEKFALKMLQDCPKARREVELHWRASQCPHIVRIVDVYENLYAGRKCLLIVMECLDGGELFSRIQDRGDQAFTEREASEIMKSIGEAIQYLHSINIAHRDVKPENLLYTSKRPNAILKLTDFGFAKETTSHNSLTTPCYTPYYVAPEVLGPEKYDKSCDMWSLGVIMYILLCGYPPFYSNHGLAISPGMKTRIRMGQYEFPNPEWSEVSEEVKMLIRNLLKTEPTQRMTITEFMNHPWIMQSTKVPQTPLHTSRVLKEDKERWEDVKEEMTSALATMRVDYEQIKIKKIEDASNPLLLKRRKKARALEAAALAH
LIMK1, sequence (P53667 whole entry, species assumed): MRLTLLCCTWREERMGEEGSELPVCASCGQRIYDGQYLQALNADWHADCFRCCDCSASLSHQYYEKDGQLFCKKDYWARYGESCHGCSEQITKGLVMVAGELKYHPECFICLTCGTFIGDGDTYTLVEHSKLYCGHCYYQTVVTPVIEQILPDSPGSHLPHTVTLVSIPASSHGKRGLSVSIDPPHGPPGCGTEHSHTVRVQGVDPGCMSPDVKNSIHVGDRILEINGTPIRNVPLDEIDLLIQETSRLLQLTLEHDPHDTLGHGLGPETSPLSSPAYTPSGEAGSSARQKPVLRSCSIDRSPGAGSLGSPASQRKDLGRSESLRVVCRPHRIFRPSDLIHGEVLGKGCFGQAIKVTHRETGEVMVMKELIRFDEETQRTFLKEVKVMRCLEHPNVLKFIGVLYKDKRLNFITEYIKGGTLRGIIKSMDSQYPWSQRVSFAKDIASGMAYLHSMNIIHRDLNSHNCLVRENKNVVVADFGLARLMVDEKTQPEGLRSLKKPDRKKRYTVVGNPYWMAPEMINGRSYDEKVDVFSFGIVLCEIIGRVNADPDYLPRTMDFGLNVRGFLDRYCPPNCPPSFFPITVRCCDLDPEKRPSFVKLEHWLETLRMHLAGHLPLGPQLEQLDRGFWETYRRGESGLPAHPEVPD
Aurora A, sequence (O14965 whole entry): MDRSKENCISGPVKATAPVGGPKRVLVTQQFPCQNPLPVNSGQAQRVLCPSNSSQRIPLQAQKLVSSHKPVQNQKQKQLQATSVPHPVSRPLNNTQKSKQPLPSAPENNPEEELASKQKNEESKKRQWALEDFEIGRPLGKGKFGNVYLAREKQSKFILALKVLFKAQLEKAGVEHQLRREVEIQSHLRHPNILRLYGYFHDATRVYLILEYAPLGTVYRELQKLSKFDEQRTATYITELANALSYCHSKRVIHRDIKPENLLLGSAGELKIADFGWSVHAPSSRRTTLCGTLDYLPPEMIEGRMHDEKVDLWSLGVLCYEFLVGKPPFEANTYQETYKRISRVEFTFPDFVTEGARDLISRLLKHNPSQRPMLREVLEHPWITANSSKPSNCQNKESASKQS
FLT1/VEGFR1, sequence (P17948 27-1338): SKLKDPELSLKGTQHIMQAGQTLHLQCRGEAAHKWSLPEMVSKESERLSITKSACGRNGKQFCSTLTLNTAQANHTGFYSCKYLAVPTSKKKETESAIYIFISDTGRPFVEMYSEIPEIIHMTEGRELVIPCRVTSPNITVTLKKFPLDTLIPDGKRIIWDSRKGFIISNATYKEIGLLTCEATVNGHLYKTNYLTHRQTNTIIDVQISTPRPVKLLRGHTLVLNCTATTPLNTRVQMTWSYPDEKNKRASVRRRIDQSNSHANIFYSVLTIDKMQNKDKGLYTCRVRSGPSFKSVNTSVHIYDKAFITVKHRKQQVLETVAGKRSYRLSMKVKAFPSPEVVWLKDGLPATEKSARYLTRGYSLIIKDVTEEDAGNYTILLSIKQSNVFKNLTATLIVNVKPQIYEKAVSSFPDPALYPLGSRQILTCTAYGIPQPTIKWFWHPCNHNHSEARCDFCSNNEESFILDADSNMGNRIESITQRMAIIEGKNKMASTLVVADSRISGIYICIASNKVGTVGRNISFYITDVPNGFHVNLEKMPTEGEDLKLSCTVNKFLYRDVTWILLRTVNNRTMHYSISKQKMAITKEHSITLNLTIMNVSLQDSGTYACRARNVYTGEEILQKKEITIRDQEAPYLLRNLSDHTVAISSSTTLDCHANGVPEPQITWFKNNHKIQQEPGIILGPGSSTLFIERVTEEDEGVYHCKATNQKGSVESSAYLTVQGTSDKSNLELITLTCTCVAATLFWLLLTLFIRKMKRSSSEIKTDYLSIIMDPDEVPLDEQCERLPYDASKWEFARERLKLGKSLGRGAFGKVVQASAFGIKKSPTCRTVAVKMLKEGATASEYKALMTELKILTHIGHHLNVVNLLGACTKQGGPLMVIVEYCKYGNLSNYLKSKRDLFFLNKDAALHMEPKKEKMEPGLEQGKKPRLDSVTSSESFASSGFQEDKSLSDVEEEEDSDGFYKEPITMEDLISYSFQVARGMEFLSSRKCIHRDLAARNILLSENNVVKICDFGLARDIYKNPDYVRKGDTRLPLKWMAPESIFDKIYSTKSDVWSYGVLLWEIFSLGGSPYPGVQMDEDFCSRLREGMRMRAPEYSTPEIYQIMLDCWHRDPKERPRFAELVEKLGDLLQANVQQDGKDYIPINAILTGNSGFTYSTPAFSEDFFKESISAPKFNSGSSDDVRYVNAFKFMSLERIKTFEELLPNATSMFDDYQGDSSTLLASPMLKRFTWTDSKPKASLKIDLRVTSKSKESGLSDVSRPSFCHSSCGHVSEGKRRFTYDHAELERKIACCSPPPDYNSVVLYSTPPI
BMX/ETK, sequence (P51813 whole entry): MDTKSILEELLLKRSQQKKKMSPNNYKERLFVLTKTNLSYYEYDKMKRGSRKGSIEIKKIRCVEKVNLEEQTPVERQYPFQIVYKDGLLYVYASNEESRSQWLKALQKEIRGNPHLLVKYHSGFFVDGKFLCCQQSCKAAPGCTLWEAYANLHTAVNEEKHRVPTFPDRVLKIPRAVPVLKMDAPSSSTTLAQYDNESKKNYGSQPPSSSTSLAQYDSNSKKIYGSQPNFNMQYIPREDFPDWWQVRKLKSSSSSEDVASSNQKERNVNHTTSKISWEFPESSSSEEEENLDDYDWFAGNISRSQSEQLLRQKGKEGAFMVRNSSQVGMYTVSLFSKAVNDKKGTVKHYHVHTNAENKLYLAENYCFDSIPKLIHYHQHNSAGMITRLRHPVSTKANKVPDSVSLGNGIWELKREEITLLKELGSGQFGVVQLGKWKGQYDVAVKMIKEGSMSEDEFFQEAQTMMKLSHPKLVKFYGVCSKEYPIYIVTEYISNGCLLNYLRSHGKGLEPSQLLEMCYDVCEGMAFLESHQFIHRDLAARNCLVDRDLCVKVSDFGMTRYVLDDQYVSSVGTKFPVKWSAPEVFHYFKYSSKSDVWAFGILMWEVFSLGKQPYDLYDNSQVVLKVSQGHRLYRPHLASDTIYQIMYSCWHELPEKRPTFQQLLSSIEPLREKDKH
c-Kit, sequence (P10721 26-976): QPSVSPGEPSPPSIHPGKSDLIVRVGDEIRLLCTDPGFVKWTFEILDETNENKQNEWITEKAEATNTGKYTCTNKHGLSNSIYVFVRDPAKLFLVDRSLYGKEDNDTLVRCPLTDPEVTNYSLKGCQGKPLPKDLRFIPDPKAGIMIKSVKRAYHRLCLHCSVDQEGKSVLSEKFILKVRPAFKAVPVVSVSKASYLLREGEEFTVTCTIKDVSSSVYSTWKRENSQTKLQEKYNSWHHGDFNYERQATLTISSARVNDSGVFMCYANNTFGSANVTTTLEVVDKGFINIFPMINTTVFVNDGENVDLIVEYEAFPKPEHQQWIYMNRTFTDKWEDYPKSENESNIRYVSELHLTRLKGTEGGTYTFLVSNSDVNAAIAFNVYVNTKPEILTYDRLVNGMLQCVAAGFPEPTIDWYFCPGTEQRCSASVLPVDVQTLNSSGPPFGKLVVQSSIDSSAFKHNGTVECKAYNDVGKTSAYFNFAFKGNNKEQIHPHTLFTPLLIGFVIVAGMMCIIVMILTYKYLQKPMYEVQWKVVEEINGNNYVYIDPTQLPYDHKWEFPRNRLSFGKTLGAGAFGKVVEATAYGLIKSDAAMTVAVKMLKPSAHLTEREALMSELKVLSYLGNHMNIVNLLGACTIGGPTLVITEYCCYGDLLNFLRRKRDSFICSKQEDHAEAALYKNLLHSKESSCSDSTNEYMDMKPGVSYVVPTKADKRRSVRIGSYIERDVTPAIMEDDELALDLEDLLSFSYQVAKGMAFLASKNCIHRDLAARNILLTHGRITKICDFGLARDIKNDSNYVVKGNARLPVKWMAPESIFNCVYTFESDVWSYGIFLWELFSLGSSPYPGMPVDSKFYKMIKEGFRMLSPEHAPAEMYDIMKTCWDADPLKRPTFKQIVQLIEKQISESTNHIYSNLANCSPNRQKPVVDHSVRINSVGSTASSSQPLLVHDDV
AURORA C, sequence (Q9UQB9 whole entry): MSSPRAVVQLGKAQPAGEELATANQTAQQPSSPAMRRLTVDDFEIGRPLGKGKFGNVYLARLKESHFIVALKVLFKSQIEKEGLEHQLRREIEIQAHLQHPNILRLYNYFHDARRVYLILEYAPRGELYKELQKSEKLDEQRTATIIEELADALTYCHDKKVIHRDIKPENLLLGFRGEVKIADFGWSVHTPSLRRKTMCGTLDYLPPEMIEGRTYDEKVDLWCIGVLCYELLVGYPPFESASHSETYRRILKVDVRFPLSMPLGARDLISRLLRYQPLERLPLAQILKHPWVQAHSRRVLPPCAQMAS

SMILES	% Enzyme Activity (relative to DMSO controls) [1]	% Enzyme Activity (relative to DMSO controls) [2]	% Enzyme Activity (relative to DMSO controls) [3]	% Enzyme Activity (relative to DMSO controls) [4]	% Enzyme Activity (relative to DMSO controls) [5]	% Enzyme Activity (relative to DMSO controls) [6]	% Enzyme Activity (relative to DMSO controls) [7]	% Enzyme Activity (relative to DMSO controls) [8]	% Enzyme Activity (relative to DMSO controls) [9]	% Enzyme Activity (relative to DMSO controls) [10]	% Enzyme Activity (relative to DMSO controls) [11]	% Enzyme Activity (relative to DMSO controls) [12]	% Enzyme Activity (relative to DMSO controls) [13]	% Enzyme Activity (relative to DMSO controls) [14]	% Enzyme Activity (relative to DMSO controls) [15]	% Enzyme Activity (relative to DMSO controls) [16]	% Enzyme Activity (relative to DMSO controls) [17]	% Enzyme Activity (relative to DMSO controls) [18]	IC50 [19]	IC50 [20]	further results
CC(C)(CCCCc1cccc(CCCCC(C)(C)C(=O)SCCNC(=O)CCNC(=O)[C@H](O)C(C)(C)COP(=O)(O)OP(=O)(O)OC[C@H]2O[C@@H](n3cnc4c(N)ncnc43)[C@H](O)[C@@H]2OP(=O)(O)O)c1)C(=O)O [Compound I-32-CoA, 6-[3-(5—Carboxy-5-methylhexyl)-phenyl]-2,2-dimethylhexanoic acid Coenzyme A Ester]	13.04% and 11.95%	33.27% and 30.67%	48.46% and 46.83%	49.54% and 43.87%	49.53% and 49.21%	35.05% and 34.20%	29.98% and 25.40%	88.39% and 80.61%	23.69% and 22.51%	47.31% and 45.01%	17.17% and 15.90%	28.56% and 27.35%	3.21% and 1.59%	35.98% and 34.99%	51.10% and 43.67%	33.02% and 32.84%	70.02% and 66.13%	52.06% and 51.61%	5.07e-06 M and 5e-06 M and 6.03e-06 M	5.02e-06 M and 4.22e-06 M and 3.33e-06 M	IC50 [21]: 9.88e-07 M and 1.22e-06 M and 1.44e-06 M
CC(C)(CCCCc1ccc(CCCCC(C)(C)C(=O)SCCNC(=O)CCNC(=O)[C@H](O)C(C)(C)COP(=O)(O)OP(=O)(O)OC[C@H]2O[C@@H](n3cnc4c(N)ncnc43)[C@H](O)[C@@H]2OP(=O)(O)O)cc1)C(=O)O [Compound I-1-CoA, 6-[4-(5-carboxy-5-methylhexyl)-phenyl]-2,2-dimethylhexanoic acid Coenzyme A ester]	12.44% and 12.42%	36.79% and 32.68%	78.81% and 72.15%	49.55% and 47.76%	73.56% and 73.24%	53.91% and 53.05%	88.28% and 79.94%	51.57% and 45.02%	63.29% and 62.44%	77.88% and 76.61%	85.04% and 84.66%	23.02% and 21.99%	2.06% and −0.71%	0.89% and 0.63%	73.92% and 70.32%	32.26% and 29.70%	39.22% and 36.50%	84.17% and 82.94%	1.63e-05 M and 1.33e-05 M and 1.25e-05 M	9.41e-06 M and 7.72e-06 M and 9.06e-06 M	IC50 [21]: 3.34e-06 M and 2.28e-06 M and 2.5e-06 M
